# Measurements: the OPERA property sets (Mansouri et al. 2018)
row,SMILES,logP
1,O=P(NN=Cc1ccc(Cl)cc1)(N1CC1)N1CC1,0.13
2,COc1ccc(C=NN(C)P(=O)(N2CC2)N2CC2)cc1,0.47
3,CC(C)=NNP(=O)(N1CC1)N1CC1,0.45
4,O=[N+]([O-])c1ccc(C=NNP(=O)(N2CC2)N2CC2)cc1,0.45
5,CN(N=Cc1ccccc1)P(=O)(N1CC1)N1CC1,0.51
6,O=P(NN=Cc1ccccc1)(N1CC1)N1CC1,0.48
7,O=[N+]([O-])c1ccc(N(N=Cc2ccccc2)P(=O)(N2CC2)N2CC2)cc1,0.57
8,O=P(N1CC1)(N1CC1)N(N=Cc1ccccc1)c1ccccc1,0.56
9,O=P(NN=Cc1ccc(F)cc1)(N1CC1)N1CC1,0.45
10,CC(C)=NN(C)P(=O)(N1CC1)N1CC1,0.51
11,O=[N+]([O-])c1ccc(C=NN(c2ccccc2)P(=O)(N2CC2)N2CC2)cc1,0.57
12,O=P(N1CC1)(N1CC1)N(N=Cc1ccc(F)cc1)c1ccccc1,0.56
13,CC(C)=NN(c1ccccc1)P(=O)(N1CC1)N1CC1,0.57
14,COc1ccc(C=NN(c2ccccc2)P(=O)(N2CC2)N2CC2)cc1,0.57
15,O=P(N1CC1)(N1CC1)N(N=Cc1ccc(Cl)cc1)c1ccccc1,0.35
16,CN(N=Cc1ccc(F)cc1)P(=O)(N1CC1)N1CC1,0.48
17,CN(N=Cc1ccc([N+](=O)[O-])cc1)P(=O)(N1CC1)N1CC1,0.51
18,COc1ccc(C=NNP(=O)(N2CC2)N2CC2)cc1,0.42
19,CN(N=Cc1ccc(Br)cc1)P(=O)(N1CC1)N1CC1,0.31
